Reference: PubChem BioAssay (NCI)
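Cells were grown in 96-well plates and exposed to each compound for 48 hours at five concentrations; endpoints were interpolated linearly between bracketing concentrations, or set to the highest concentration if not reached. GI50 marks 50% less growth. TGI denotes the concentration required for complete inhibition of growth.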

Experiments:
Assay in all cases: growth of human tumour cells (NCI), 48 h
SN12C renal = test system: SN12C renal
LOX IMVI melanoma = test system: LOX IMVI melanoma
NCI-H226 lung = test system: NCI-H226 lung
SF-268 CNS = test system: SF-268 CNS
OVCAR-4 ovarian = test system: OVCAR-4 ovarian
HOP-62 NSCLC = test system: HOP-62 NSCLC
UACC-62 melanoma = test system: UACC-62 melanoma
SK-MEL-2 melanoma = test system: SK-MEL-2 melanoma
COLO 205 colon = test system: COLO 205 colon
A549 NSCLC = test system: A549 NSCLC

Structure (SMILES): COc1ccc(-n2cc(-c3cc(OC)c(OC)c(OC)c3)nc2SCc2ccc(Cl)cc2)cc1OC
- GI50 (SN12C renal): > 100 µM
- TGI (SN12C renal): > 100 µM
- GI50 (LOX IMVI melanoma): > 100 µM
- TGI (LOX IMVI melanoma): > 100 µM
- GI50 (NCI-H226 lung): > 100 µM
- TGI (NCI-H226 lung): > 100 µM
- GI50 (SF-268 CNS): > 100 µM
- TGI (SF-268 CNS): > 100 µM
- GI50 (OVCAR-4 ovarian): 71.9 µM
- TGI (OVCAR-4 ovarian): > 100 µM
- GI50 (HOP-62 NSCLC): > 100 µM
- TGI (HOP-62 NSCLC): > 100 µM
- GI50 (UACC-62 melanoma): 35.5 µM
- TGI (UACC-62 melanoma): > 100 µM
- GI50 (SK-MEL-2 melanoma): > 100 µM
- TGI (SK-MEL-2 melanoma): > 100 µM
- GI50 (COLO 205 colon): > 100 µM
- TGI (COLO 205 colon): > 100 µM
- GI50 (A549 NSCLC): 53.2 µM
- TGI (A549 NSCLC): > 100 µM

Structure (SMILES): CC(=O)OCCOCn1c2ccccc2c2c3c(c4c5ccccc5n(COCCOC(C)=O)c4c21)C(=O)N(Cc1ccccc1)C3=O
- TGI (SN12C renal): > 100 µM
- TGI (LOX IMVI melanoma): > 100 µM
- TGI (NCI-H226 lung): > 100 µM
- TGI (SF-268 CNS): > 100 µM
- TGI (OVCAR-4 ovarian): > 100 µM
- TGI (HOP-62 NSCLC): > 100 µM
- TGI (UACC-62 melanoma): > 100 µM
- TGI (SK-MEL-2 melanoma): > 100 µM
- TGI (COLO 205 colon): > 100 µM
- TGI (A549 NSCLC): > 100 µM

Structure (SMILES): C[C@H]1CCC/C=C/C2CC(OC(=O)CN(C)C)CC2C(OC(=O)CN(C)C)/C=C/C(=O)O1 (some centres undefined)
- GI50 (SN12C renal): 0.391 µM
- TGI (SN12C renal): 8.33 µM
- GI50 (LOX IMVI melanoma): 1.16 µM
- TGI (LOX IMVI melanoma): 2.67 µM
- GI50 (NCI-H226 lung): 0.133 µM
- TGI (NCI-H226 lung): 0.44 µM
- GI50 (SF-268 CNS): 0.484 µM
- TGI (SF-268 CNS): > 100 µM
- GI50 (OVCAR-4 ovarian): 0.349 µM
- TGI (OVCAR-4 ovarian): 34.2 µM
- GI50 (HOP-62 NSCLC): 2.51 µM
- TGI (HOP-62 NSCLC): 23.2 µM
- GI50 (UACC-62 melanoma): 0.443 µM
- TGI (UACC-62 melanoma): > 65.4 µM
- GI50 (SK-MEL-2 melanoma): 0.224 µM
- TGI (SK-MEL-2 melanoma): 3.79 µM
- GI50 (COLO 205 colon): 0.246 µM
- TGI (COLO 205 colon): 3.6 µM
- GI50 (A549 NSCLC): 0.68 µM
- TGI (A549 NSCLC): > 100 µM

Structure (SMILES): Oc1ccc(NC(=S)Nc2ccccc2)cc1
- GI50 (SN12C renal): > 100 µM
- TGI (SN12C renal): > 100 µM
- GI50 (LOX IMVI melanoma): > 100 µM
- TGI (LOX IMVI melanoma): > 100 µM
- GI50 (NCI-H226 lung): > 100 µM
- TGI (NCI-H226 lung): > 100 µM
- GI50 (SF-268 CNS): > 100 µM
- TGI (SF-268 CNS): > 100 µM
- GI50 (OVCAR-4 ovarian): > 100 µM
- TGI (OVCAR-4 ovarian): > 100 µM
- GI50 (HOP-62 NSCLC): > 100 µM
- TGI (HOP-62 NSCLC): > 100 µM
- GI50 (UACC-62 melanoma): > 100 µM
- TGI (UACC-62 melanoma): > 100 µM
- GI50 (SK-MEL-2 melanoma): > 100 µM
- TGI (SK-MEL-2 melanoma): > 100 µM
- GI50 (COLO 205 colon): > 100 µM
- TGI (COLO 205 colon): > 100 µM
- GI50 (A549 NSCLC): > 100 µM
- TGI (A549 NSCLC): > 100 µM

Structure (SMILES): N#C/C(=C\c1ccc(O)c(O)c1)C(=O)NCc1ccc(C(F)(F)F)cc1
- GI50 (SN12C renal): 4.06 µM
- TGI (SN12C renal): 18.8 µM
- GI50 (LOX IMVI melanoma): 7.54 µM
- TGI (LOX IMVI melanoma): 20.4 µM
- GI50 (NCI-H226 lung): 19.8 µM
- TGI (NCI-H226 lung): 54.9 µM
- GI50 (SF-268 CNS): 14.9 µM
- TGI (SF-268 CNS): > 62.9 µM
- GI50 (OVCAR-4 ovarian): 13.3 µM
- TGI (OVCAR-4 ovarian): > 71.9 µM
- GI50 (HOP-62 NSCLC): 9.48 µM
- TGI (HOP-62 NSCLC): 26.9 µM
- GI50 (UACC-62 melanoma): 4.25 µM
- TGI (UACC-62 melanoma): 13.9 µM
- TGI (SK-MEL-2 melanoma): 6.34 µM
- GI50 (COLO 205 colon): 12.1 µM
- TGI (COLO 205 colon): 43.3 µM
- GI50 (A549 NSCLC): 10.9 µM
- TGI (A549 NSCLC): 53.5 µM

Structure (SMILES): CC1(C)OB(c2ccc(N(CCOS(C)(=O)=O)CCOS(C)(=O)=O)cc2)OC1(C)C
- GI50 (SN12C renal): 9.38 µM
- TGI (SN12C renal): > 54.6 µM
- GI50 (LOX IMVI melanoma): 6.98 µM
- TGI (LOX IMVI melanoma): > 53.3 µM
- GI50 (NCI-H226 lung): 9.02 µM
- TGI (NCI-H226 lung): 33.6 µM
- GI50 (SF-268 CNS): 23 µM
- TGI (SF-268 CNS): > 83.7 µM
- GI50 (OVCAR-4 ovarian): 32.9 µM
- TGI (OVCAR-4 ovarian): > 86.6 µM
- GI50 (HOP-62 NSCLC): 7.92 µM
- TGI (HOP-62 NSCLC): 23.4 µM
- GI50 (UACC-62 melanoma): 13 µM
- TGI (UACC-62 melanoma): 33 µM
- GI50 (SK-MEL-2 melanoma): 28.6 µM
- TGI (SK-MEL-2 melanoma): > 79.1 µM
- GI50 (COLO 205 colon): 24.1 µM
- TGI (COLO 205 colon): > 100 µM
- GI50 (A549 NSCLC): 15.1 µM
- TGI (A549 NSCLC): > 85.8 µM

Structure (SMILES): Cc1cc2c(cc1Cl)SC(N(c1ccccc1Cl)S(=O)(=O)c1ccc(Br)s1)=NS2(=O)=O
- GI50 (SN12C renal): 19.5 µM
- TGI (SN12C renal): 48.7 µM
- GI50 (LOX IMVI melanoma): 12.1 µM
- TGI (LOX IMVI melanoma): 25.5 µM
- GI50 (NCI-H226 lung): 23.1 µM
- TGI (NCI-H226 lung): > 100 µM
- GI50 (SF-268 CNS): 12.7 µM
- TGI (SF-268 CNS): 30.7 µM
- GI50 (OVCAR-4 ovarian): 18.1 µM
- TGI (OVCAR-4 ovarian): 76.8 µM
- GI50 (HOP-62 NSCLC): 37.5 µM
- TGI (HOP-62 NSCLC): > 100 µM
- GI50 (UACC-62 melanoma): 20.3 µM
- TGI (UACC-62 melanoma): 68.4 µM
- GI50 (SK-MEL-2 melanoma): 12.8 µM
- TGI (SK-MEL-2 melanoma): 43.7 µM
- GI50 (COLO 205 colon): 12.2 µM
- TGI (COLO 205 colon): 28 µM
- GI50 (A549 NSCLC): 25.7 µM
- TGI (A549 NSCLC): > 100 µM
